Source: patent US8372979B2, “Process for the production of high-purity 2,4′-dimethyl-3-piperidino-propiophenone (tolperisone), pharmaceutical compositions that contain the latter, as well as active ingredient formulations that contain tolperisone” (SANOCHEMIA Pharmazeutika AG, priority 2007, dated 2013)
Entries after “also recorded” stand apart in the source; their conditions may differ.

Legend:
[1] = preclinical in vitro tests (genotoxicity); conditions: classification also based on chemical structure
[2] = storage stability of tolperisone end product (4-MMPPO formation, HPLC-MS/MS); assay type: physicochemical
Procedure: Prior art according to AT PS 413 539: The tolperisone crude product is dissolved under reflux for 30 minutes in an 85:15 mixture that consists of 2-butanone (MEK) and isopropanol. The temperature is lowered to 80° C., and the solution is hot-filtered. The solution is allowed to cool to 5° C., and it is stirred for 7 hours. The crystalline precipitate that is obtained is filtered off, washed with 2-butanone, and then dried in a vacuum at 45-85° C.
A proportion of 500 ppm of 4-MMPPO is detected by analysis using HPLC-MS/MS.
The tolperisone crude product is dissolved under reflux for 12 hours in an 85:15 mixture that consists of 2-butanone (MEK) and isopropanol and with the addition of 1% HCl and 5% citric acid. The temperature is lowered to 80° C., and the solution is hot-filtered. The solution is allowed to cool to 5° C., and it is stirred for 7 hours at 5° C. The crystalline precipitate is filtered off, washed with MEK, and then dried in a vacuum at 45° to 85° C.
By analysis using HPLC-MS/MS, a proportion of 4-MMPPO in a range of 0 ppm (not detectable) to 10 ppm is determined.

SMILES	genotoxic or carcinogenic actions [1]	stabilizing effect of citric acid present in end product ([2]; Variant IIIa: recrystallization in MEK/IPA + 1% HCl + 5% citric acid)	4-MMPPO values with extended storage ([2]; end product of prior-art process AT 413 539 (recrystallization MEK/IPA, no acid))
C=C(C)C(=O)c1ccc(C)cc1 [4-MMPPO, 2-methyl-1-(4-methylphenyl)-propenone]	genotoxic or carcinogenic actions have been detected; also recorded: potentially genotoxic	–	–
Cc1ccc(C(=O)C(C)CN2CCCCC2)cc1 (stereo not drawn) [tolperisone, 2,4′-dimethyl-3-piperidino-propiophenone]	–	a stabilizing effect could be detected	additional increasing 4-MMPPO values
